Experimental data published in paper PMC4281207, “Dr-FtsA, an Actin Homologue in Deinococcus radiodurans Differentially Affects Dr-FtsZ and Ec-FtsZ Functions In Vitro” (PLoS ONE, 2014).

How the values were obtained:
Dr-FtsA = target: T1, Dr-FtsA (Deinococcus radiodurans, UniProt Q9RWN6); test: circular dichroism; transmission electron microscopy of polymers; type: binding; conditions: 10 µM ATP (CD) or 1 mM ATP (TEM), 37 °C; 25 mM PIPES pH 7.5, 50 mM KCl, with or without 5 mM MgCl2 (TEM); ATP not hydrolysed
T1 construct: full-length from pBADDFtsA (pBAD/HisA), expressed in E. coli TOP10; His tag removed; 54 kDa
T1 sequence (Q9RWN6 1-517): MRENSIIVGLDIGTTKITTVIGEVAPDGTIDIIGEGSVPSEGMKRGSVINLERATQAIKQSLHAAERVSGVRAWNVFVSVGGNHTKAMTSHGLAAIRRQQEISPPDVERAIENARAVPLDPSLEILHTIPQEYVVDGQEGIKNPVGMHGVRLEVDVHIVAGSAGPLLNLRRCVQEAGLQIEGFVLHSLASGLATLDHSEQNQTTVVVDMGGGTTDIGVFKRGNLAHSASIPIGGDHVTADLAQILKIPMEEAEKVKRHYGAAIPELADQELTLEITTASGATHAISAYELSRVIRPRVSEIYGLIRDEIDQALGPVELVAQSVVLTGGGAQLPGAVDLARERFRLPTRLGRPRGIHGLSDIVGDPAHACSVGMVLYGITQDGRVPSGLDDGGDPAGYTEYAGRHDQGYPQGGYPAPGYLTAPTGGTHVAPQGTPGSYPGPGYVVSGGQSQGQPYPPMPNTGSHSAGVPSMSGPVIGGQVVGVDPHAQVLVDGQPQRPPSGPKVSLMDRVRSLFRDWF

Dr-FtsZ [1] = target: T2, Dr-FtsZ (Deinococcus radiodurans, UniProt Q9RWN5); test: stimulation of GTPase activity; [α[…]]-GTP TLC; type: biochemical; conditions: 0.5 mM ATP, 0.5 mM GTP, 2 mM MgCl2, PIPES pH 7.5, 37 °C; activator, site not known; ATP not hydrolysed
T2 construct: 42 kDa
T2 sequence (Q9RWN5 1-371): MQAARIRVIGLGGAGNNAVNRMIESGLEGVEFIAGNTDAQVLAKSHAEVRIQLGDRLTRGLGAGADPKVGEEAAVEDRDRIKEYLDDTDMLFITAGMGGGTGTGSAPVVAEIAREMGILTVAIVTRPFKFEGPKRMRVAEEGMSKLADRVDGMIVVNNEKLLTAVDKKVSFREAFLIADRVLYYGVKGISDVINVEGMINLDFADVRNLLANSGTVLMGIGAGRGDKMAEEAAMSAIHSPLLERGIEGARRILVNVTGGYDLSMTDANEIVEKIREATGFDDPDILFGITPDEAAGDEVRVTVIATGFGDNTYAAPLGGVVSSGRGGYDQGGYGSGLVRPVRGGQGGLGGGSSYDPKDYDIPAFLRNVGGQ

Dr-FtsZ [2] = target: T2, Dr-FtsZ; test: malachite green Pi release; [α[…]]-GTP TLC; type: biochemical; conditions: PIPES pH 7.5, 50 mM KCl, 2 mM MgCl2, 1 mM GTP (0.5 mM in TLC assay), 37 °C

Structure (SMILES) | circular dichroism; transmission electron microscopy of polymers (Dr-FtsA) | stimulation of GTPase activity; [α32P]-GTP TLC (Dr-FtsZ [1]) | malachite green Pi release; [α32P]-GTP TLC (Dr-FtsZ [2])
Nc1ncnc2c1ncn2[C@@H]1O[C@H](COP(=O)(O)OP(=O)(O)OP(=O)(O)O)[C@@H](O)[C@H]1O [ATP] | had the correct secondary structure assignment, and interacted with ATP in solution | the GTPase activity of Dr-FtsZ was stimulated in the presence of ATP (Fig. 2C) | 
Nc1nc2c(ncn2[C@@H]2O[C@H](COP(=O)(O)OP(=O)(O)OP(=O)(O)O)[C@@H](O)[C@H]2O)c(=O)[nH]1 [GTP] |  |  | GTPase activity of Dr-FtsZ was stimulated in the presence of Dr-FtsA
